Assay results published in patent US6479435B1, “Diaryl ethers and processes for their preparation and herbicidal and desiccant compositions containing them” (ISK Americas Incorporated, priority 1997, dated 2002).

How the values were obtained:
Assay type in all cases: in vivo
[1] = system: common ragweed (Ambrosia artemisiifolia L., AMBEL); assay: Pre-emerge greenhouse herbicide test, phytotoxicity rating; conditions: 14 days after application, rating scale 0-100
Procedure, shortened: (§1)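 Visual 0–100 injury rating (100 = all plants dead) taken 14 days after treatment. Rates of 125–1000 g ai/ha in acetone, 187 l/ha, were sprayed onto soil one day post-sowing; pots were surface-watered to incorporate, then bottom-watered.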

[2] = system: large crabgrass (Digitaria sanguinalis, DIGSA); assay: as above; conditions: Digitaria sanguinalis, pre-emergence, 336 h, 14 days after application, rating scale 0-100; for pest or weed control at 125 g/ha: Rate 125 g al/ha; for pest or weed control at 500 g/ha: Rate 500 g al/ha
Procedure, shortened: as §1

[3] = system: redroot pigweed (Amaranthus retroflexus, AMARE); assay: as above; conditions: Amaranthus retroflexus, pre-emergence, 336 h, 14 days after application, rating scale 0-100; for pest or weed control at 125 g/ha: Rate 125 g al/ha; for pest or weed control at 500 g/ha: Rate 500 g al/ha
Procedure, shortened: as §1

[4] = system: sicklepod (Cassia obtusifolia, CASOB); assay: as above; conditions: Senna obtusifolia, pre-emergence, 336 h, 14 days after application, rating scale 0-100; for pest or weed control at 125 g/ha: Rate 125 g al/ha; for pest or weed control at 500 g/ha: Rate 500 g al/ha
Procedure, shortened: as §1

[5] = system: common ragweed (Ambrosia artemisiifolia L., AMBEL); assay: Post-emerge greenhouse herbicide test, phytotoxicity rating; conditions: 14 days after application, scale 0-100
Procedure, shortened: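 Scores use a 0 (no damage) to 100 (complete kill) scale, taken 14 days after a foliar spray. Acetone solutions with 0.25% v/v non-ionic surfactant were applied by track sprayer at 187 l/ha and 63-1000 g ai/ha to bottom-watered 2-3 leaf plants.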

Broadleaf Weeds = assay: Pre-emergent application in combination with other herbicides, percent control of broadleaf weeds; conditions: 62.5 g ai/ha
Experimental: (§2) All plants were grown in 10 cm square plastic pots which were filled with a sandy loam soil mix. For preemerge tests, seeds were planted one day prior to application of the test compounds. Immediately after application, test units of the pre-emerge applications were watered at the soil surface to incorporate the test materials. Subsequently, these test units were bottom-watered.
(§3) All test compounds were dissolved in acetone and applied to the test units in a volume of 187 l/ha. […] Plants were arranged on a shelf so that the top of the canopy (post-emerge) or top of the soil surface (pre-emerge) was 40-45 cm below the nozzle. Pressurized air was used to force the test solution through the nozzle as it was mechanically advanced (via electrically driven chain drive) over the top of all test plants/pots. This application simulates a typical commercial field herbicide application.
(§4) At 14 days after application of the test materials, phytotoxicity ratings were recorded. A rating scale of 0-100 was used as previously described in Research Methods in Weed Science, 2nd edition, B. Truelove, Ed., Southern Weed Science Society, Auburn University, Auburn, Ala., 1977. Briefly, “0” corresponds to no damage and “100” corresponds to complete death of all plants in the test unit. This scale was used both to determine efficacy against weed species and damage to crop species. Herbicide activity data for various compounds of this invention, which are shown by compound number in Tables 1-9, are shown in Tables 13 and 14.
(§5) (Note: Weed species abbreviations are from the Composite List of Weeds published by the Weed Science Society of America, 1989.)
The following examples illustrate the utility of combinations of compounds of this invention and existing herbicides. The methods used are identical to those for the application of single compounds except the commercial formulations of existing herbicides were added to the spray mixture in the appropriate amounts before spraying. […]
(§6) Combination Example 2. Pre-emergent Application of Compound 9-1 with Dimethenamid

Grass Weeds = assay: Pre-emergent application in combination with other herbicides, percent control of grass weeds; conditions: 62.5 g ai/ha
Experimental: as §2, §3, §4, §5
The following examples illustrate the utility of combinations of compounds of this invention and existing herbicides. The methods used are identical to those for the application of single compounds except the commercial formulations of existing herbicides were added to the spray mixture in the appropriate amounts before spraying.
Combination Example 1. Pre-emergent Application of Compound 9-1 with Metolachlor
as §6

Compound | AMBEL phytotoxicity rating ([1]; Rate 125 g al/ha) | AMBEL phytotoxicity rating ([1]; Rate 500 g al/ha) | pest or weed control at 125 g/ha [2] | pest or weed control at 500 g/ha [2] | pest or weed control at 125 g/ha [3] | pest or weed control at 500 g/ha [3] | pest or weed control at 125 g/ha [4] | pest or weed control at 500 g/ha [4] | phytotoxicity rating AMBEL ([5]; rate 63 g ai/ha) | phytotoxicity rating AMBEL ([5]; rate 500 g ai/ha) | further results
O=c1n(-c2cc(Oc3ncccc3C(F)(F)F)c(Cl)cc2F)c(=S)n2n1CCCC2 [Compound 8-18, 2-[4-chloro-2-fluoro-5-(3-trifluoromethyl-2pyridyloxy)phenyl]hexahydro-3-thioxo-1H-[1,2,4]triazolo[1,2-a]pyridazin-1-one] | 100 | 95 | 50% | 100% | 100% | 100% | 20% | 40% | 95 | 60 | –
O=c1n(-c2cc(Oc3ncccn3)c(Cl)cc2F)c(=S)n2n1CCCC2 [Compound 8-29, 2-[4-chloro-2-fluoro-5-(2-pyrimidyloxy)phenyl]hexahydro-3-thioxo-1H-[1,2,4]triazolo[1,2-a]pyridazin-1-one] | 100 | 100 | 100% | 100% | 100% | 100% | 100% | 100% | 90 | 100 | –
Nn1c(C(F)(F)F)cc(=O)n(-c2cc(Oc3ncccc3[N+](=O)[O-])c(Cl)cc2F)c1=O [Compound 9-1, 1-amino-3-[4-chloro-2-fluoro-5-(3-nitro-2-pyridyloxy)phenyl]-6-trifluoromethyl-1,2,3,4-tetrahydropyrimidine-2,4-dione] | – | – | 40% | 100% | 100% | 100% | 30% | 90% | – | – | Percent Control of Broadleaf Weeds ABUTH (Broadleaf Weeds): 95%; Percent Control of Broadleaf Weeds ABUTH (Broadleaf Weeds; Combination Example 2): 95%; Percent Control of Broadleaf Weeds AMARE (Broadleaf Weeds): 100%; Percent Control of Broadleaf Weeds AMARE (Broadleaf Weeds; Combination Example 2): 100%; Percent Control of Broadleaf Weeds AMBEL (Broadleaf Weeds): 40%; Percent Control of Broadleaf Weeds AMBEL (Broadleaf Weeds; Combination Example 2): 40%; Percent Control of Broadleaf Weeds CASOB (Broadleaf Weeds): 10%; Percent Control of Broadleaf Weeds CASOB (Broadleaf Weeds; Combination Example 2): 10%; Percent Control of Broadleaf Weeds CHEAL (Broadleaf Weeds): 100%; Percent Control of Broadleaf Weeds CHEAL (Broadleaf Weeds; Combination Example 2): 100%; Percent Control of Broadleaf Weeds IPOHE (Broadleaf Weeds): 50%; Percent Control of Broadleaf Weeds IPOHE (Broadleaf Weeds; Combination Example 2): 50%; Percent Control of Grass Weeds DIGSA (Grass Weeds): 20%; Percent Control of Grass Weeds DIGSA (Grass Weeds; Combination Example 2): 20%; Percent Control of Grass Weeds ECHCG (Grass Weeds): 0%; Percent Control of Grass Weeds ECHCG (Grass Weeds; Combination Example 2): 0%; Percent Control of Grass Weeds SETVI (Grass Weeds): 90%; Percent Control of Grass Weeds SETVI (Grass Weeds; Combination Example 2): 90%; Percent Control of Grass Weeds SORHA (Grass Weeds): 0%; Percent Control of Grass Weeds SORHA (Grass Weeds; Combination Example 2): 0%
Nn1c(C(F)(F)F)cc(=S)n(-c2cc(Oc3ccc(Cl)cn3)c(Cl)cc2F)c1=O [Compound 9-28, 1-amino-3-[4-chloro-2-fluoro-5-(5-chloro-2-pyridyloxy)phenyl]-6-trifluoromethyl-1,2,3,4tetrahydro-2-oxo-4-thioxopyrimidine] | – | – | 70% | 100% | 100% | 100% | 50% | 50% | – | – | –
